Consider one molecule from patent publication US20240245677A1, “SELECTED COMPOUNDS FOR TARGETED DEGRADATION OF BRD9” (C4 THERAPEUTICS, INC., priority 2021, published 2024).

Like-named read-outs stand apart in the source and are kept apart here.

Data set [1] concerns the target T1, BRD9 (Homo sapiens, UniProt Q9H8M2).
T1 sequence (Q9H8M2 1-597): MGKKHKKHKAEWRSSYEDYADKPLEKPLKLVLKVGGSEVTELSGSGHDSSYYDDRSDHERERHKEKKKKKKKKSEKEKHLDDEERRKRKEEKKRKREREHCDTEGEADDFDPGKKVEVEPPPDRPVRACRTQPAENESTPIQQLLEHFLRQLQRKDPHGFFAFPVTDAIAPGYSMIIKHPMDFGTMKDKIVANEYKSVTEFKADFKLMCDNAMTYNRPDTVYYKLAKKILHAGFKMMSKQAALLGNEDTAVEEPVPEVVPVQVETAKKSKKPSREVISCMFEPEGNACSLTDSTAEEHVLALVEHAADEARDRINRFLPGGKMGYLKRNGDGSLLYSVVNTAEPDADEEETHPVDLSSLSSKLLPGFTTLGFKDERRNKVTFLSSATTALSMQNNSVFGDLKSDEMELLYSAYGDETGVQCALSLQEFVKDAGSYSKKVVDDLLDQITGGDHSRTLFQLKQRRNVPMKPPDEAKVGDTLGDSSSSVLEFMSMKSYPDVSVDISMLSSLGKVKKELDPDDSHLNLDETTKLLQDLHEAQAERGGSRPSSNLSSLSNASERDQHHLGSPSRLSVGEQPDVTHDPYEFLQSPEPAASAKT
The data set can be described thus: BRD9 degradation in Yamato-SS cells (endogenous), Western blot. The following applies: percent BRD9 detected, read-out: Emax(%). In kind it is cell-based. As for the experimental part:
The purpose of this study was to evaluate the detection of BRD9 in a human cell line and susceptibility to degradation by Compound 1.
Previously frozen YAMATO-SS human cells (provided by the RIKEN BRC through the National BioResource Project of the MEXT/AMED, Japan (cat #RCB3577)) were thawed. Upon thawing, the cells were transferred to a 15 mL conical tube containing 10 mL of warm RPMI-1640 medium (Catalog No. C2400500BT, Gibco, Grand Island, NY, USA) supplemented with 10% FBS (Catalog No. SV30087.03, Cytiva, Marlborough, MA, USA) and spun down for 5 minutes at 1200 rpm. An aliquot was diluted 2× with Trypan Blue solution 0.4% (Catalog No. 15250061, ThermoSischer Scientific, Waltham, MA, USA) and cell count was determined. […]
Samples were boiled for 5 minutes and placed on ice for 30 minutes. […] Supernatants were transferred to a new 2.0 mL microcentrifuge tube and total protein concentrations were measured using Pierce™ BCA Protein Assay Kit (Catalog No. 23225, ThermoFischer Scientific, Waltham, MA USA).
After total protein quantification, all samples were diluted to a fixed μg/μL of protein in 6× loading buffer (Catalog No. BP-111R, Boston Bioproducts, Inc., Milford, MA, USA) for a final concentration of 40 μg of total protein in 1× loading buffer per lane. […]
In general terms: Immunoblotting shows a protein as a band on a membrane.

Data set [2] is described as follows: Crystallization from hot saturated solutions by fast cooling. In kind it is physicochemical. The following applies: for Comments / XRPD: hot saturated solution. As for the experimental part: Samples with no precipitates were put in −20° C. freezer for crystallization. Precipitates were collected by filtration. The solid part (wet cake) were investigated by XRPD.

With `COc1cc(-c2cn(C)c(=O)c(C)c2C)cc(OC)c1CN1CC[C@H](N2CCN(c3ccc(N[C@H]4CCC(=O)NC4=O)cc3F)CC2)C(F)(F)C1` [Compound 1, (S)-3-((4-(4-((S)-1-(2,6-dimethoxy-4-(1,4,5-trimethyl-6-oxo-1,6-dihydropyridin-3-yl)benzyl)-3,3-difluoropiperidin-4-yl)piperazin-1-yl)-3-fluorophenyl)amino)-piperidine-2,6-dione], the % BRD9 remaining in data set [1] (4 hr) is 1.2%; in data set [1] (24 hr), 3.4%. The “Comments: form after seeding” value in data set [2] (2-MeTHF, add Pattern G as seeds, slurry for 5 days) was “Pattern G”. Further, the Comments result in data set [2] (2-MeTHF) and in data set [2] (Methanol) was “Clear solution” in each case. In addition, the XRPD entry is “Pattern B” in data set [2] (Acetone), “Pattern F” in data set [2] (Ethanol) and “Pattern F” in data set [2] (Ethyl acetate).
